Test results published in patent publication US11780832B2, “Lactivicin compounds, their preparation and use as antibacterial agents” (priority 2021, dated 2023).
Values after ≈ are worked out from the molar mass of the structure shown.

How the values were obtained:
Assay in all cases: MIC, CLSI broth microdilution
Assay type in all cases: cell-based
[1] = system: Klebsiella aerogenes VIM-1, SHV-12
Description: (§1) Gram-negative and Gram-positive bacterial strains used during the in vitro minimum inhibitory concentration (MIC) determination were obtained either from the American Type Culture Collection (ATCC) or from clinical specimens. All strains were characterized genotypically and the respective antibiotic resistance markers for each strain were identified.
(§2) Isolates were sub-cultured onto appropriate media and stocked in skim milk at −80° C. Following two subcultures from frozen stock, in vitro antimicrobial susceptibility testing was performed using the Clinical and Laboratory Standards Institute (CLSI) broth microdilution method. Briefly, fresh cultures were suspended in culture media to give a final stock inoculum size of 5×10^7 colony forming units per milliliter of broth (CFU/mL). […] 100 μL of the stock solutions were added to the first wells in a 96-well plate and were then diluted using a 2-fold dilution method to give a range of 32-0.025 μg/mL. 100 μL of the bacterial suspensions were then added to the 96-well plates to give a final working inoculum size of 5×10^5 CFU/mL. The final compound concentration range was 16-0.0125 μg/mL. […] MICs for comparator agents were determined using custom-designed, in-house prepared 96-well broth microdilution panels.

Escherichia coli CMY-2 = conditions: CMY2
Description: as §1, §2

[2] = system: Escherichia coli CTX-M-15; conditions: CTXM15
Description: as §1, §2

[3] = system: Klebsiella pneumoniae OXA-163, OXA-1_OXA-30, SHV-1, TEM-1
Description: as §1, §2

[4] = system: Escherichia coli Isogenic TEM-10
Description: as §1, §2

[5] = system: Klebsiella pneumoniae KPC-3; conditions: KPC3, KPC-3, read-out: MIC
Description: as §1, §2

[6] = system: Escherichia coli Empty pSMART plasmid
Description: as §1, §2

[7] = system: Pseudomonas aeruginosa ATCC 27853; conditions: ATCC27853
Description: as §1, §2

[8] = system: Escherichia coli pSMART_Ecloacae_AmpC
Description: as §1, §2

[9] = system: Escherichia coli pSMART_Cfreundii_AmpC
Description: as §1, §2

[10] = system: Klebsiella pneumoniae OXA-48, SHV-1
Description: as §1, §2

[11] = system: Escherichia coli Isogenic TEM-26
Description: as §1, §2

[12] = system: Klebsiella pneumoniae SHV-12; conditions: SHV12, SHV-12, read-out: MIC
Description: as §1, §2

[13] = system: Pseudomonas aeruginosa OprD negative
Description: as §1, §2

[14] = system: Enterobacter cloacae species complex NDM-1
Description: as §1, §2

[15] = system: Citrobacter freundii species complex OXA-181; conditions: Citrobacter freundii species complex, OXA-181; read-out: MIC
Description: as §1, §2

[16] = system: Serratia marcescens SME-2; conditions: SME2
Description: as §1, §2

[17] = system: Klebsiella pneumoniae KPC-2; conditions: KPC2
Description: as §1, §2

[18] = system: Pseudomonas aeruginosa AmpC overexpressed
Description: as §1, §2

[19] = system: Serratia marcescens AmpC overexpressed
Description: as §1, §2

Escherichia coli SHV-12 = conditions: SHV12
Description: as §1, §2

[20] = system: Acinetobacter baumannii ATCC 19606; conditions: ATCC19606
Description: as §1, §2

[21] = system: Klebsiella oxytoca KPC-2, TEM-1; conditions: KPC-2, TEM-1, read-out: MIC
Description: as §1, §2

[22] = system: Escherichia coli ATCC 25922; conditions: ATCC25922
Description: as §1, §2

Row | SMILES | MIC [1] | MIC (Escherichia coli CMY-2) | MIC [2] | MIC [3] | MIC [4] | MIC [5] | MIC [6] | MIC [7] | MIC [8] | MIC [9] | MIC [10] | MIC [11] | MIC [12] | MIC [13] | MIC [14] | MIC [15] | MIC [16] | MIC [17] | MIC [18] | MIC [19] | also measured
1 | CN1CCC(O/N=C(\C(=O)N[C@H]2CON(C3(C(=O)O)C[C@H](N4C(=O)c5cc(O)c(O)cc5C4=O)C(=O)O3)C2=O)c2csc(N)n2)(C(=O)O)CC1 (stereo partly drawn) [Cmpd 9, 4-({(Z)-[1-(2-amino-1,3-thiazol-4-yl)-2-({(4S)-2-[(4S)-2-carboxy-4-(5,6-dihydroxy-1,3-dioxo-1,3-dihydro-2H-isoindol-2-yl)-5-oxooxolan-2-yl]-3-oxo-1,2-oxazolidin-4-yl}amino)-2-oxoethylidene]amino}oxy)-1-methylpiperidine-4-carboxylic acid] | 0.5 µg/mL (≈ 0.697 µM) | 2 µg/mL (≈ 2.79 µM) | 4 µg/mL (≈ 5.57 µM) | 0.25 µg/mL (≈ 0.348 µM) | 0.12 µg/mL (≈ 0.167 µM) | 0.25 µg/mL (≈ 0.348 µM) | 0.12 µg/mL (≈ 0.167 µM) | 4 µg/mL (≈ 5.57 µM) | 0.25 µg/mL (≈ 0.348 µM) | 0.25 µg/mL (≈ 0.348 µM) | 0.12 µg/mL (≈ 0.167 µM) | 0.12 µg/mL (≈ 0.167 µM) | 0.12 µg/mL (≈ 0.167 µM) | > 16 µg/mL | 8 µg/mL (≈ 11.1 µM) | 0.25 µg/mL (≈ 0.348 µM) | 0.5 µg/mL (≈ 0.697 µM) | 0.25 µg/mL (≈ 0.348 µM) | > 16 µg/mL | 4 µg/mL (≈ 5.57 µM) | MIC (Escherichia coli SHV-12): 2 µg/mL (≈ 2.79 µM); MIC [20]: 2 µg/mL (≈ 2.79 µM); MIC [21]: 0.03 µg/mL (≈ 0.0418 µM); MIC [22]: 0.5 µg/mL (≈ 0.697 µM)
2 | Nc1nc(/C(=N/OC2(C(=O)O)CNC2)C(=O)N[C@H]2CON(C3(C(=O)O)C[C@H](N4C(=O)c5cc(O)c(O)cc5C4=O)C(=O)O3)C2=O)cs1 (stereo partly drawn) [Cmpd 7, 3-({(Z)-[1-(2-amino-1,3-thiazol-4-yl)-2-({(4S)-2-[(4S)-2-carboxy-4-(5,6-dihydroxy-1,3-dioxo-1,3-dihydro-2H-isoindol-2-yl)-5-oxooxolan-2-yl]-3-oxo-1,2-oxazolidin-4-yl}amino)-2-oxoethylidene]amino}oxy)azetidine-3-carboxylic acid] | 8 µg/mL (≈ 11.8 µM) | 4 µg/mL (≈ 5.92 µM) | 8 µg/mL (≈ 11.8 µM) | 0.5 µg/mL (≈ 0.74 µM) | 0.12 µg/mL (≈ 0.178 µM) | 0.5 µg/mL (≈ 0.74 µM) | 0.12 µg/mL (≈ 0.178 µM) | > 16 µg/mL | 0.5 µg/mL (≈ 0.74 µM) | 1 µg/mL (≈ 1.48 µM) | 0.12 µg/mL (≈ 0.178 µM) | 0.25 µg/mL (≈ 0.37 µM) | 0.5 µg/mL (≈ 0.74 µM) | > 16 µg/mL | > 16 µg/mL | 1 µg/mL (≈ 1.48 µM) | 0.5 µg/mL (≈ 0.74 µM) | 0.5 µg/mL (≈ 0.74 µM) | > 16 µg/mL | > 16 µg/mL | MIC (Escherichia coli SHV-12): 1 µg/mL (≈ 1.48 µM); MIC [20]: > 16 µg/mL; MIC [21]: 0.12 µg/mL (≈ 0.178 µM); MIC [22]: 1 µg/mL (≈ 1.48 µM)
3 | Nc1nc(/C(=N/OC2(C(=O)O)CC3CCC(C2)O3)C(=O)N[C@H]2CON(C3(C(=O)O)C[C@H](N4C(=O)c5cc(O)c(O)nc5C4=O)C(=O)O3)C2=O)cs1 (stereo partly drawn) [Cmpd 27, 3-({(Z)-[1-(2-amino-1,3-thiazol-4-yl)-2-({(4S)-2-[(4S)-2-carboxy-4-(2,3-dihydroxy-5,7-dioxo-5,7-dihydro-6H-pyrrolo[3,4-b]pyridin-6-yl)-5-oxooxolan-2-yl]-3-oxo-1,2-oxazolidin-4-yl}amino)-2-oxoethylidene]amino}oxy)-8-oxabicyclo[3.2.1]octane-3-carboxylic acid] | 0.12 µg/mL (≈ 0.164 µM) | 4 µg/mL (≈ 5.47 µM) | 8 µg/mL (≈ 10.9 µM) | 0.25 µg/mL (≈ 0.342 µM) | 0.25 µg/mL (≈ 0.342 µM) | 0.12 µg/mL (≈ 0.164 µM) | 0.25 µg/mL (≈ 0.342 µM) | 4 µg/mL (≈ 5.47 µM) | 0.25 µg/mL (≈ 0.342 µM) | 0.25 µg/mL (≈ 0.342 µM) | 0.03 µg/mL (≈ 0.041 µM) | 0.12 µg/mL (≈ 0.164 µM) | 0.12 µg/mL (≈ 0.164 µM) | 2 µg/mL (≈ 2.73 µM) | 2 µg/mL (≈ 2.73 µM) | 0.12 µg/mL (≈ 0.164 µM) | 1 µg/mL (≈ 1.37 µM) | 0.06 µg/mL (≈ 0.082 µM) | 4 µg/mL (≈ 5.47 µM) | 0.5 µg/mL (≈ 0.683 µM) | MIC (Escherichia coli SHV-12): 8 µg/mL (≈ 10.9 µM); MIC [20]: 1 µg/mL (≈ 1.37 µM); MIC [21]: 0.0149 µg/mL (≈ 0.0204 µM); MIC [22]: 0.5 µg/mL (≈ 0.683 µM)
